Data reported in US12059425B2, “Heterocyclic compounds and uses thereof” (Kumquat Biosciences Inc., priority 2022, dated 2024).

Legend:
K-Ras G12S = molecular target: T1, K-Ras G12S (Homo sapiens, UniProt P01116, G12S); assay: PPI-HTRF assay, K-Ras G12S / SOS1 interaction; assay type: biochemical; details: read-out: PPI-HTRF-5 nM (K-Ras G12S IC50)
T1 construct: made in house; host or cells: E. coli, e.g. BL21 (DE3)
Excerpt: (§1) This assay can be also used to assess a selective inhibition or reduction of signaling output of a mutant Ras protein relative to a wildtype, or relative to a different mutant Ras protein. For example, the equilibrium interaction of wildtype Kras or K-Ras mutant (e.g., wildtype or a mutant thereof) with SOS1 (e.g., hSOS1) can be assessed as a proxy or an indication for a subject compound's ability to bind and inhibit Ras protein. HTRF assay detects from (i) a fluorescence resonance energy transfer (FRET) donor (e.g., antiGST-Europium) that is bound to GST-tagged K-Ras mutant to (ii) a FRET acceptor (e.g., anti-6His-XL665) bound to a His-tagged hSOS1.
(§2) The assay buffer can contain ˜5 mM HEPES pH 7.4, ˜150 mM NaCl, ˜1 mM DTT, 0.05% BSA and 0.0025% (v/v) Igepal. A Ras working solution is prepared in an assay buffer containing typically a suitable amount of the protein construct (e.g., GST-tagged K-Ras mutant) and the FRET donor (e.g., antiGST-Eu(K) from Cisbio, France). A SOS1 working solution is prepared in an assay buffer containing suitable amount of the protein construct (e.g., His-hSOS1) and the FRET acceptor (e.g., anti-6His-XL665 from Cisbio, France). A suitable amount of the protein construct will depend on the range of activity or range of IC50 values being detected or under investigation. For detecting IC50 within a range of 500 nM, the protein constructs of the same range of molarity can be utilized.
(§3) A fixed volume of DMSO with or without test compound is transferred into a 384-well plate. Ras working solution is added to all wells of the test plate. SOS1 working solution is added to all wells except for those that are subsequently filled the inhibitor control solution. Upon incubation for about 10 minutes or longer, the fluorescence is measured with a M1000Pro plate reader (Tecan) using HTRF detection (excitation 337 nm, emission 1: 620 nm, emission 2: 665 nm). Compounds are tested in duplicate at different concentrations (for example, 10 μM, 2.5 μM, 0.63 μM, 0.16 μM, 0.04 μM, 0.01 μM test compound). The ratiometric data (i.e., emission 2 divided by emission 1) is used to calculate IC50 values against Ras using GraphPad Prism (GraphPad software). Following this general procedure, samples are tested with or without a subject compound disclosed herein including compounds exemplified in Table 1 to assess their abilities to inhibit a mutant K-Ras relative to another K-Ras (e.g., different mutant or wildtype). Signaling output measured in terms of IC50 values can be obtained, a ratio of IC50 against one mutant relative to another mutant can be calculated. For instance, a selective reduction of K-Ras G12D signaling output can be evidenced by a ratio greater than one. In particular, a selective reduction of K-Ras G12D signaling relative to K-Ras WT signaling is evidenced if the ratio of IC50 (against K-Ras WT) to IC50 (against K-Ras G12D) is greater than 1.

K-Ras G12V = molecular target: T2, K-Ras G12V (Homo sapiens, UniProt P01116, G12V); assay: PPI-HTRF assay, K-Ras G12V / SOS1 interaction; assay type: biochemical; details: HTRF, K-Ras G12V; read-out: PPI-HTRF-5 nM (K-Ras G12V IC50)
T2 construct: made in house; host or cells: E. coli, e.g. BL21 (DE3)
T2 sequence (P01116 1-188 isoform P01116-2 G12V): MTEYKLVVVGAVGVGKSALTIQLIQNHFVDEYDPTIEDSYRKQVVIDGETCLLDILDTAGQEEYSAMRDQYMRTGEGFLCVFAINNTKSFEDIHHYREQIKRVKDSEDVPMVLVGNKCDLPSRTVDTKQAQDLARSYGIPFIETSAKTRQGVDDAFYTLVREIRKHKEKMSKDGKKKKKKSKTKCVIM
Excerpt: as §1, §2, §3

K-Ras G12D = molecular target: T3, K-Ras G12D (Homo sapiens, UniProt P01116, G12D); assay: PPI-HTRF assay, K-Ras G12D / SOS1 interaction; assay type: biochemical; details: HTRF, K-Ras G12D; read-out: PPI-HTRF-5 nM (K-Ras G12D IC50)
T3 construct: made in house; host or cells: E. coli, e.g. BL21 (DE3)
T3 sequence (P01116 1-188 isoform P01116-2 G12D): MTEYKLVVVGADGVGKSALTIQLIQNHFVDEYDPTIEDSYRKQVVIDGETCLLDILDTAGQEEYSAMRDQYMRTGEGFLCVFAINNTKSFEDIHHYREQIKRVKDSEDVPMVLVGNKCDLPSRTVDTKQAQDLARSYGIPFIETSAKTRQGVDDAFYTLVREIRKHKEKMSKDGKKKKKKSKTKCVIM
Excerpt: as §1, §2, §3

wildtype K-Ras = molecular target: T4, wildtype K-Ras (Homo sapiens, UniProt P01116); assay: PPI-HTRF assay, wildtype K-Ras / SOS1 interaction; assay type: biochemical; details: HTRF, K-Ras wt; read-out: PPI-HTRF-5 nM (K-Ras wt IC50)
T4 construct: made in house; host or cells: E. coli, e.g. BL21 (DE3)
T4 sequence (P01116 1-188 isoform P01116-2): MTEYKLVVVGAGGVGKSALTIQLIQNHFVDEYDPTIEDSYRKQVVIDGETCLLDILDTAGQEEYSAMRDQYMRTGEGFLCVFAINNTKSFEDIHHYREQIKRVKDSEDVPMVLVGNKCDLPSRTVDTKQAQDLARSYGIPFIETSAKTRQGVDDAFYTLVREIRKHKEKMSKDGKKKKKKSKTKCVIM
Excerpt: as §1, §2, §3

GP2D cells = assay: Ras cellular assay, cell proliferation GP2D; assay type: cell-based
Protocol: (§4) For example, this assay can be also used to assess selective growth inhibition of a mutant Ras protein relative to a wildtype, or relative to a different mutant Ras protein.
ASPC-1 (ATCC CRL-1682), Panc-10.05 (ATCC CRL-2547), A427, GP2d cell lines or any other cell lines comprising a G12D mutation can be used to assess Ras cellular signaling in vitro, e.g., in response to a compound described herein. For example, ASPC-1 culture medium is prepared with RPMI-1640 and 10% heat-inactivated FBS. Panc-10.05 culture medium is prepared with RPMI-1640, 10 Units/mL human recombinant insulin, and 10% FBS. A427 cell culture is prepared with RPMI-1640 and 10% heat-inactivated FBS. A CellTiter-Glo (CTG) luminescent based assay (Promega) is used to assess growth of the cells, as a measurement of the ability of the compounds herein to inhibit Ras signaling in the cells. The cells (e.g., 800 per well) are seeded in their respective culture medium in standard tissue culture-treated 384-well format plates (Falcon #08-772-116) or ultra-low attachment surface 384-well format plates (S-Bio #MS-9384UZ). The day after plating, cells are treated with a dilution series (e.g., a 9 point 3-fold dilution series) of the compounds herein (e.g., approximately 40 μL final volume per well). Cell viability can be monitored (e.g., approximately 5 days later) according to the manufacturer's recommended instructions, where the CellTiter-Glo reagent is added (e.g., approximately 10 μL), vigorously mixed, covered, and placed on a plate shaker (e.g., approximately for 20 min) to ensure sufficient cell lysis prior to assessment of luminescent signal. The IC50 values are determined using the four parameter fit. The resulting IC50 value is a measurement of the ability of the test compound to reduce cell growth of Ras-driven cells (e.g., tumor cell lines) in vitro and/or in vivo.

SW620 cells = assay: Ras cellular assay, cell proliferation SW620; assay type: cell-based; details: Homo sapiens, SW-620
Excerpt: as §4

T1 sequence (P01116 1-188 isoform P01116-2 G12S): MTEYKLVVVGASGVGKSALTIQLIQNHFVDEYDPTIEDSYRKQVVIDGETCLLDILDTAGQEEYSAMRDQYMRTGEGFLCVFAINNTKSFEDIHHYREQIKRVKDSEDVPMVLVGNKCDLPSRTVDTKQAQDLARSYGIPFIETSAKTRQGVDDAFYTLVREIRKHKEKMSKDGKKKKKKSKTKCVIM

SMILES | IC50 (K-Ras G12S) [µM] | IC50 (K-Ras G12V) [µM] | IC50 (K-Ras G12D) [µM] | IC50 (wildtype K-Ras) [µM] | IC50 (SW620 cells) [µM] | IC50 (GP2D cells) [µM]
CN(C)CCCN1c2nc(OC[C@@]34CCCN3C[C@H](F)C4)nc3c(F)c(-c4ccc(F)c5sc(N)c(C#N)c45)c(Cl)c(c23)OCC2COCC21 (stereo partly drawn) [compound 209, 2-amino-4-(6-chloro-12-(3-(dimethylamino)propyl)-4-fluoro-2-(((2R,7aS)-2-fluorotetrahydro-1H-pyrrolizin-7a(5H)-yl)methoxy)-8a,9,11a,12-tetrahydro-8H,11H-furo[3′,4′:6,7][1,5]oxazocino[4,3,2-de]quinazolin-5-yl)-7-fluorobenzo[b]thiophene-3-carbonitrile] | < 5 | < 5 | < 5 | < 5 | < 5 | < 5
CNCC(C)N1c2nc(OC[C@@]34CCCN3C[C@H](F)C4)nc3c(F)c(-c4ccc(F)c5sc(N)c(C#N)c45)c(Cl)c(c23)OCC2COCC21 (stereo partly drawn) [compound 109, 2-amino-4-(6-chloro-4-fluoro-2-(((2R,7aS)-2-fluorotetrahydro-1H-pyrrolizin-7a(5H)-yl)methoxy)-12-(1-(methylamino)propan-2-yl)-8a,9,11a,12-tetrahydro-8H,11H-furo[3′,4′:6,7][1,5]oxazocino[4,3,2-de]quinazolin-5-yl)-7-fluorobenzo[b]thiophene-3-carbonitrile] | < 5 | < 5 | < 5 | < 5 | > 5 | > 5
CC(CN(C)C)N1c2nc(OC[C@@]34CCCN3C[C@H](F)C4)nc3c(F)c(-c4ccc(F)c5sc(N)c(C#N)c45)c(Cl)c(c23)OCC2COCC21 (stereo partly drawn) [compound 102, 2-amino-4-(6-chloro-12-(1-(dimethylamino)propan-2-yl)-4-fluoro-2-(((2R,7aS)-2-fluorotetrahydro-1H-pyrrolizin-7a(5H)-yl)methoxy)-8a,9,11a,12-tetrahydro-8H,11H-furo[3′,4′:6,7][1,5]oxazocino[4,3,2-de]quinazolin-5-yl)-7-fluorobenzo[b]thiophene-3-carbonitrile] | < 5 | < 5 | < 5 | < 5 | > 5 | < 5
N#Cc1c(N)sc2c(F)ccc(-c3c(Cl)c4c5c(nc(OC[C@@]67CCCN6C[C@H](F)C7)nc5c3F)N3C[C@H](NC(=O)[C@H]5CN5)C[C@H]3CO4)c12 [compound 111, (2R)-N-((2R,12aS)-9-(2-amino-3-cyano-7-fluorobenzo[b]thiophen-4-yl)-10-chloro-8-fluoro-6-(((2R,7aS)-2-fluorotetrahydro-1H-pyrrolizin-7a(5H)-yl)methoxy)-2,3,12,12a-tetrahydro-1H-pyrrolo[2′,1′:,4][1,4]oxazepino[5,6,7-de]quinazolin-2-yl)aziridine-2-carboxamide] | < 5 | < 5 | < 5 | < 5 | > 5 | > 5

Continued, in another order:

IC50 (K-Ras G12S) [µM] | IC50 (K-Ras G12V) [µM] | IC50 (K-Ras G12D) [µM] | IC50 (wildtype K-Ras) [µM] | IC50 (SW620 cells) [µM] | SMILES | IC50 (GP2D cells) [µM]
< 5 | < 5 | < 5 | < 5 | < 5 | CC1Oc2c(Cl)c(-c3ccc(F)c4sc(N)c(C#N)c34)c(F)c3nc(OC[C@@]45CCCN4C[C@H](F)C5)nc(c23)N(C)C2COCC12 (stereo partly drawn) [compound 104] | < 5
< 5 | < 5 | < 5 | < 5 | > 5 | N#Cc1c(N)sc2c(F)ccc(-c3c(Cl)c4c5c(nc(OC[C@@]67CCCN6C[C@H](F)C7)nc5c3F)N3CC(N)CCC3CCO4)c12 (stereo partly drawn) [compound 129, 2-amino-4-(9-amino-3-chloro-1-fluoro-13-(((2R,7aS)-2-fluorotetrahydro-1H-pyrrolizin-7a(5H)-yl)methoxy)-6,6a,7,8,9,10-hexahydro-5H-pyrido[1′,2′:5,6][1,5]oxazocino[4,3,2-de]quinazolin-2-yl)-7-fluorobenzo[b]thiophene-3-carbonitrile] | < 5
< 5 | < 5 | < 5 | < 5 | < 5 | N#Cc1c(N)sc2c(F)ccc(-c3c(Cl)c4c5c(nc(OC[C@@]67CCCN6C[C@H](F)C7)nc5c3F)N3C[C@H](O)C[C@@H]3CCO4)c12 [compound 164, 2-amino-4-((2R,13aS)-10-chloro-8-fluoro-6-(((2R,7aS)-2-fluorotetrahydro-1H-pyrrolizin-7a(5H)-yl)methoxy)-2-hydroxy-1,2,3,12,13,13a-hexahydropyrrolo[1′,2′:5,6][1,5]oxazocino [4,3,2-de]quinazolin-9-yl)-7-fluorobenzo[b]thiophene-3-carbonitrile] | < 5
< 5 | < 5 | < 5 | < 5 | < 5 | CNC1CCN2c3nc(OC[C@@]45CCCN4C[C@H](F)C5)nc4c(F)c(-c5ccc(F)c6sc(N)c(C#N)c56)c(Cl)c(c34)OCCC2C1 (stereo partly drawn) [compound 158, 2-amino-4-(3-chloro-1-fluoro-13-(((2R,7aS)-2-fluorotetrahydro-1H-pyrrolizin-7a(5H)-yl)methoxy)-8-(methylamino)-6,6a,7,8,9,10-hexahydro-5H-pyrido[11,2′:5,6][1,5]oxazocino[4,3,2-de]quinazolin-2-yl)-7-fluorobenzo[b]thiophene-3-carbonitrile] | > 5
< 5 | < 5 | < 5 | < 5 | < 5 | N#CCCN1c2nc(OC[C@@]34CCCN3C[C@H](F)C4)nc3c(F)c(-c4ccc(F)c5sc(N)c(C#N)c45)c(Cl)c(c23)OCC2COCC21 (stereo partly drawn) [compound 197, 2-amino-4-(6-chloro-12-(2-cyanoethyl)-4-fluoro-2-(((2R,7aS)-2-fluorotetrahydro-1H-pyrrolizin-7a(5H)-yl)methoxy)-8a,9,11a,12-tetrahydro-8H,11H-furo[3′,4′:6,7][1,5]oxazocino[4,3,2-de]quinazolin-5-yl)-7-fluorobenzo[b]thiophene-3-carbonitrile] | < 5
